# How the values were obtained:
# human BLT2 = target: T1, human BLT2 (Homo sapiens, UniProt Q9NPC1); assay: LTB4-induced increase in intracellular calcium ion concentration in CHO cells expressing human BLT2 (Fluo-3, Flexstation); format: cell-based; conditions: LTB4 100 nM final; for Suppressive effect on increase in intracellular calcium ion concentration compared with ZK158252 (in words): compound 10 μM final
# T1 construct: expressed in transfected cells; host or cells: CHO cells
# T1 sequence (Q9NPC1 1-358): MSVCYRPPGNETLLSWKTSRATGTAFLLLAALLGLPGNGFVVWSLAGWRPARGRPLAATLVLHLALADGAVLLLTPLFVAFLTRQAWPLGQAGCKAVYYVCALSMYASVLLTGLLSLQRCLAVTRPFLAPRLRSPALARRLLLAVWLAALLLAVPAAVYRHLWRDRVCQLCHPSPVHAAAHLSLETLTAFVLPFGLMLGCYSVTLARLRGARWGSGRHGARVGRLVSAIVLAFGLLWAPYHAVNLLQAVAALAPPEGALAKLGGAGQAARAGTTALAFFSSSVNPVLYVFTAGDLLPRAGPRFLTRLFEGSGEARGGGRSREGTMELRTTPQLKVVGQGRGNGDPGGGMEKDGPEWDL
# Method: (§1) CHO cells habouring a gene encoding human BLT1 or human BLT2 and functionally expressing the receptor were seeded in a 96 well plate at 4×10^4 cells/well, and cultured at 37° C. for 60 min. The culture supernatant was removed and a loading buffer (100 μl) containing 4 μM Fluo-3 (manufactured by Dojindo), 0.04% pluoronic acid (manufactured by Sigma) and 1% serum was added. The mixture was culture at 37° C. for 30 min to introduce Fluo-3 into the cells. After culture, the cells were washed with a buffer, and a buffer containing various compounds (10 μM (final concentration)) was added, and then 100 nM (final concentration) of LTB4 was added. Changes in the intracellular calcium ion concentration were measured with Flexstation (manufactured by Molecular Devices Corporation) as increase in the fluorescence intensity (area under a curve in a time-course graph of fluorescence intensity in 10 min measurement). As a positive control of BLT1 and BLT2 antagonists, ZK158252 was used.
# LTB4 receptor = assay: TXB2 release from guinea pig eosinophils stimulated with LTB4 (LTB4 receptor antagonist activity); format: cell-based; conditions: 10^−3 M test compound (37.5 μl) added to 300 μl cell suspension, then 10^−7 M LTB4 (37.5 μl), 37° C. 15 min, positive control 100, negative control 0, N.D. = TXB2 concentration at measurement limit or less
# Method: The LTB4 receptor antagonist activity of the test compound was examined using, as an index, thromboxane B2 (TXB2) released when stimulating eosinophil of guinea pig with LTB4.
# Based on the method described in Japanese Journal of Pharmacology, vol. 70, p. 337-345 (1996) etc., eosinophils of guinea pig were prepared. A cell suspension (300 μl, 1.25×10^6 cells/ml) was placed in a 5 ml polypropylene test tube and, after incubation at 37° C. for 5 min., 10^−3 M test compound (37.5 μl) dissolved in 0.1% DMSO aqueous solution was added and the cells were continuously cultured for 5 min. Then, 10^−7 M LTB4 (37.5 μl) was added to induce the reaction and the cells were incubated at 37° C. for 15 min. The reaction was quenched in ice water, and the culture was centrifuged at 4° C., 3000 rpm for 10 min. The obtained supernatant was prepared as a sample for TXB2 measurement, and preserved at −80° C. before use for the measurement. The quantitation of TXB2 was performed using a TXB2 enzyme immunoassay kit (manufactured by Cayman Chemical Company). The release ratio (%) of TXB2 from the eosinophils was determined by the following formula: release ratio (%) of TXB2=[(average value of test compound administration group−average value of negative control group)/(average value of positive control group−average value of negative control group)]×100
# As used herein, the positive control group means a group to which stimulation with LTB4 was applied but the same volume of a medium was given instead of the test compound, and the negative control group means a group to which stimulation with LTB4 was not applied, the same volume of a medium was given instead of LTB4, and the same volume of a medium was given instead of the test compound. When the release ratio of TXB2 is smaller than 0, it means that the measured TXB2 concentration was lower than that of the negative control group. When the TXB2 concentration in the sample was the measurement limit or less, N.D. is indicated.
# human BLT1 = target: T2, human BLT1 (Homo sapiens, UniProt Q15722); assay: LTB4-induced increase in intracellular calcium ion concentration in CHO cells expressing human BLT1 (Fluo-3, Flexstation); format: cell-based; conditions: CHO cells with human BLT1; LTB4 100 nM final; compound 10 μM final
# T2 construct: expressed in transfected cells; host or cells: CHO cells
# Method: as §1
# T2 sequence (Q15722 whole entry): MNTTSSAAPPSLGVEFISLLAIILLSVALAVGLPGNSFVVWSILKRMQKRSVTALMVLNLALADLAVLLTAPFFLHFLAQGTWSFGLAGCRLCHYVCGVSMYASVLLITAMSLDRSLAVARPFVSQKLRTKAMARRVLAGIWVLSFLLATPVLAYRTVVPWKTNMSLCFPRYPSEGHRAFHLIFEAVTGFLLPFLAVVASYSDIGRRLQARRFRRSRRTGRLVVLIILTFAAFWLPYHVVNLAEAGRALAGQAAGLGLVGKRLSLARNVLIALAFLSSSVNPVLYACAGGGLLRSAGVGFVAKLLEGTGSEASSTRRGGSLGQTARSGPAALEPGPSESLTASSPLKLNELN
melting point [°C],Suppression of increase in intracellular calcium ion concentration due to LTB4 stimulation (in words) (human BLT1),"Suppression of increase in intracellular calcium ion concentration due to LTB4 stimulation (in words) (human BLT2; CHO cells with human BLT2, positive control antagonist)",Structure (SMILES),Suppressive effect on increase in intracellular calcium ion concentration compared with ZK158252 (in words) (human BLT2),Amount of TXB2 release (%) (LTB4 receptor)
140.1 to 142,,,"COc1cccc2cc(/C(Cl)=C/C=C/C(=O)N(C(C)C)C(C)C)oc12 [Example 142, (2E,4Z)-5-chloro-5-(7-methoxybenzofuran-2-yl)penta-2,4-dienoic acid diisopropylamide]",almost of the same level as or not less than that by ZK158252,
,significantly suppressed,significantly suppressed,"O=C(O)CCC/C=C1\CCCCC1/C=C/C=C/C(O)C1(CC#Cc2ccccc2)CCC1 (centres unmarked) [ZK158252, reference compound]",,
229.5 to 231,,,"COc1ccc2oc(-c3csc(NC(=O)/C(C#N)=C(/C)O)n3)c(-c3ccc(Cl)cc3)c2c1 [Example 222, (Z)-2-cyano-3-hydroxy-2-butenoic acid {4-[3-(4-chlorophenyl)-5-methoxybenzofuran-2-yl]thiazol-2-yl}amide]",almost of the same level as or not less than that by ZK158252,

# Further lines, the molecule ahead of its results:
Structure (SMILES),melting point [°C],Suppression of increase in intracellular calcium ion concentration due to LTB4 stimulation (in words) (human BLT1),"Suppression of increase in intracellular calcium ion concentration due to LTB4 stimulation (in words) (human BLT2; CHO cells with human BLT2, positive control antagonist)",Suppressive effect on increase in intracellular calcium ion concentration compared with ZK158252 (in words) (human BLT2),Amount of TXB2 release (%) (LTB4 receptor)
"CCOC(=O)CCCOc1cccc2cc(/C(C)=C/C(=O)NCCc3ccc(OC)c(OC)c3)oc12 [Example 49, Ethyl (E)-4-(2-{2-[2-(3,4-dimethoxyphenyl)ethylcarbamoyl]-1-methylvinyl}benzofuran-7-yloxy)butyrate]",114 to 115.5,,,almost of the same level as or not less than that by ZK158252,2.37
"COc1cccc(NC(=O)/C=C(\C)c2cc3cccc(OCCCC(=O)O)c3o2)c1 [Example 29, (E)-4-{2-[2-(3-methoxyphenylcarbamoyl)-1-methylvinyl]benzofuran-7-yloxy}butyric acid]",155.5 to 157.5,,,almost of the same level as or not less than that by ZK158252,−0.19
"CCN(CC)C(=O)/C=C(\C)c1cc2cccc(OC(C)C)c2o1 [Example 33, (E)-3-(7-isopropoxybenzofuran-2-yl)-N,N-diethyl-2-butenamide]",,,,almost of the same level as or not less than that by ZK158252,−0.199
"CCOC(=O)CCCOc1cccc2cc(/C(C)=C/C(=O)N3CCOCC3)oc12 [Example 30, Ethyl (E)-4-[2-(1-methyl-3-morpholino-3-oxo-1-propenyl)benzofuran-7-yloxy]butyrate]",90 to 94.8,,,almost of the same level as or not less than that by ZK158252,0.086
"CCOC(=O)CCCOc1cccc2cc(/C(C)=C\C(=O)Nc3ccc(OC)c(OC)c3)oc12 [Example 46, Ethyl (Z)-4-{2-[2-(3,4-dimethoxyphenylcarbamoyl)-1-methylvinyl]benzofuran-7-yloxy}butyrate]",101.5 to 105,,,almost of the same level as or not less than that by ZK158252,45.62
